Source: ChEMBL document CHEMBL1201862, “PubChem BioAssay data set” (2004)
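Each compound was tested at five concentrations against cells in 96-well plates for 48 hours. Here, GI50 denotes the concentration required for 50% inhibition of growth.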 The source made the active and inactive calls. Rule as the data show it: active = GI50 up to about 1.1 µM and inactive = higher.

Key:
Experiment in all cases: growth of human tumour cells (NCI), 48 h
SNB-78 = tested on: SNB-78
XF498 = tested on: XF498
HOP-18 = tested on: HOP-18
M19-MEL = tested on: M19-MEL
DMS-273 = tested on: DMS-273
LXFL 529 = tested on: LXFL 529
DMS-114 = tested on: DMS-114
786-0 = tested on: 786-0
RXF 631 = tested on: RXF 631

Measured: GI50

CCCCCCCC/C=C\CCCCCCCCCCCC(=O)O [ERUCIC ACID]
inactive: SNB-78 44.4 µM | XF498 1.48 µM | HOP-18 46.2 µM | M19-MEL 26.2 µM | DMS-273 22.2 µM

CCNc1nnc(-c2nsc3ccccc23)s1
inactive: SNB-78 62.1 µM | LXFL 529 94.2 µM | HOP-18 11.5 µM | M19-MEL > 100 µM | DMS-273 27.7 µM

COc1cc2c3cc1Oc1c(OC)c(OC)cc4c1C(Cc1ccc(cc1)Oc1cc(ccc1O)CC3N(C)CC2)N(C)CC4 (centres undefined)
inactive: SNB-78 20.9 µM | DMS-114 11.9 µM | LXFL 529 13.6 µM | HOP-18 > 100 µM | M19-MEL 11.9 µM

C1=Cc2nccc3cc4c(c(c23)N1)OCO4
inactive: 786-0 4.03 µM

COc1ccc(/C(Cl)=C(\C=O)c2ccc(Cl)c(Cl)c2)cc1OC
inactive: SNB-78 4.28 µM | DMS-114 12.4 µM | XF498 3.05 µM | LXFL 529 3.55 µM | HOP-18 6.76 µM | M19-MEL 8.11 µM | DMS-273 6.73 µM | RXF 631 4.57 µM

C#CC(C)(C)Oc1cc(OC)c2c(=O)c3ccccc3n(C)c2c1
inactive: 786-0 7.46 µM

COc1cccc(NC(=O)CC(=O)NNCC(=O)Nc2nnc(-c3ccc(N(CCC#N)S(=O)(=O)c4ccccc4)cc3)s2)c1
inactive: SNB-78 > 100 µM | DMS-114 41.6 µM | XF498 73.8 µM | LXFL 529 66.4 µM | HOP-18 > 100 µM | M19-MEL 44.1 µM | DMS-273 72.1 µM | RXF 631 > 100 µM

NNc1nc2ccccc2s1
inactive: 786-0 > 100 µM
